Patent US20170321283A1, “METHODS OF DIAGNOSING CANCER AND OF PREDICTING RESPONSE OF CANCER TO DENDROGENIN A TREATMENT” (INSERM (INSTITUT NATIONAL DE LA SANTÉ ET DE LA RECHERCHE …, priority 2014, published 2017)
“Also recorded” adds a separate entry of the source. Blank lines part the entries; values can stand above or below the molecule they belong to.

Key:
hGSTA1 [1] = molecular target: T1, hGSTA1 (Homo sapiens, UniProt P08263); experiment: Glutathionylation of CDNB by recombinant hGSTA1 (CDNB-SG biosynthesis); type: biochemical; details: for Inhibition of CDNB-SG biosynthesis: 1 and 10 μM 5,6α-EC or HA (FIG. 2c)
T1 construct: purchased Novus NBP1-30307
T1 sequence (P08263 1-222): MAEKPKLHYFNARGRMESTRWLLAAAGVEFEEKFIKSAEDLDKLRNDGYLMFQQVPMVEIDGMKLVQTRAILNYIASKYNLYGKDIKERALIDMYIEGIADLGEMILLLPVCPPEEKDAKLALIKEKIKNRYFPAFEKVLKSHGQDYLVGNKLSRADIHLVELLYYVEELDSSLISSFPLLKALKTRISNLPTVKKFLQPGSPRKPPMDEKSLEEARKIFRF
Method: The mixture was incubated for 30 min at 30° C. and the reaction was stopped with 200 μl MeOH. Measurements were carried out spectrophotometrically at 345 nm (Am=8.5 mM^−1·cm^−1). The negative control corresponds to the same test performed in absence of hGSTA1.

hGSTA1 [2] = molecular target: T1, hGSTA1; experiment: CDO-SG biosynthesis by hGSTA1 (glutathionylation of 5,6α-EC); type: biochemical; details: for Inhibition of CDO-SG biosynthesis: 1 and 10 mM CDNB, 1 and 10 μM HA, 1 μM 5,6β-EC, 10 μM CT, OCDO, 27-HC or 22(R)-HC (FIG. 2g-h)
Method: (§1) The mixture was incubated for 30 minutes at 30° C., and the reaction was stopped by addition of 200 μl MeOH. After centrifugation 10 min at 18,000 g (4° C.), the supernatant was evaporated to dryness using a speed vac concentrator (Savant SP01010, Thermo scientific) and the residue was resuspended in 20 μl MeOH. Samples were spotted on HPTLC NanoSilgur 10×10 cm plates (Macherey Nagel, ref 811042) and developed using ethyl acetate/butanol/acetic acid/water (6:2:3:2) for CDO-SG and CH2Cl/MeOH/NH4OH 84:15:1 for DDA. Standards were co-spotted with samples. […] The radioactivity was quantified by liquid scintillation counting of the ethanol extract of the silica scraped at the retention factor (Rf) corresponding to authentic 5,6α-EC, CDO-SG or DDA standards.

hGSTA1 [3] = molecular target: T1, hGSTA1; experiment: DDA biosynthesis by hGSTA1 (histaminylation of 5,6α-EC, DDAS activity); type: biochemical; details: for Inhibition of DDA biosynthesis (DDAS): 10 mM CDNB, 1 μM 5,6β-EC or 10 μM CT, OCDO, 27-HC or 22(R)-HC (FIG. 3d-e)
Method: as §1

LXR = details: endogenous LXR ligand; cited from earlier work
[4] = substrate: NCCc1c[nH]cn1; experiment: purified protein, by the assay type; details: other: substrates 5,6α-EC + histamine, product DDA; pH 7.5; 30.0 °C
[5] = substrate: N[C@@H](CCC(=O)N[C@@H](CS)C(=O)NCC(=O)O)C(=O)O; experiment: purified protein, by the assay type; details: other: substrates 5,6α-EC + GSH, product CDO-SG; pH 7.5; 30.0 °C
[6] = substrates 5,6α-EC + GSH, product CDO-SG, Table 1
[7] = substrates 5,6α-EC + histamine, product DDA, Table 1

Molecule: CC(C)CCC[C@@H](C)[C@H]1CC[C@H]2[C@@H]3C[C@@H]4O[C@@]45C[C@@H](O)CC[C@]5(C)[C@H]3CC[C@]12C [5,6α-EC, 5,6α-epoxy-cholesterol]
Inhibition of CDNB-SG biosynthesis (hGSTA1 [1]): not inhibitors
Vm^5,6-EC (hGSTA1 [2]; 5,6-EC + GSH to CDO-SG): 1.33 pmol·min^−1·mg prot
higher affinity of hGSTA1 for 5,6-EC than for CDNB (hGSTA1 [2]; ratio of Km): 73 fold
Km (hGSTA1 [2]; substrates 5,6α-EC + GSH, product CDO-SG): 0.44 µM
Vm^5,6-EC (hGSTA1 [2]; [6]): 1.33 pmol · min^−1 · mg.pr
catalytic efficiency higher to transform 5,6α-EC compared to CDNB (hGSTA1 [3]): 60 fold
Vm^5,6EC (hGSTA1 [3]; 5,6-EC + HA to DDA): 0.81 pmol·min^−1·mg prot
Km (hGSTA1 [3]; substrates 5,6α-EC + histamine, product DDA): 0.28 µM
Vm^5,6-EC (hGSTA1 [3]; [7]): 0.81 pmol · min^−1 · mg.pr

Molecule: CC(C)CCC[C@@H](C)[C@H]1CC[C@H]2[C@@H]3C[C@H]4O[C@]45C[C@@H](O)CC[C@]5(C)[C@H]3CC[C@]12C [5,6β-EC, 5,6β-epoxy-cholesterol]
Inhibition of CDO-SG biosynthesis (hGSTA1 [2]): potent inhibitors
Inhibition of DDA biosynthesis (DDAS) (hGSTA1 [3]): most potent inhibitor; also recorded: potent inhibitor

Molecule: O=[N+]([O-])c1ccc(Cl)c([N+](=O)[O-])c1 [CDNB, 1-chloro-2,4-dinitrobenzene]
Vm^CDNB (hGSTA1 [1]; CDNB + GSH to CDNB-SG): 274 μmol·min^−1·mg prot
Km (hGSTA1 [1]; read-out: Km^CDNB, substrates CDNB + GSH, product CDNB-S-G): 32.2 µM
Vm^CDNB (hGSTA1 [1]; substrates CDNB + GSH, product CDNB-S-G, Table 1): 274 µmol/min/mg
Inhibition of CDO-SG biosynthesis (hGSTA1 [2]): did not inhibit
Inhibition of DDA biosynthesis (DDAS) (hGSTA1 [3]): did not inhibit

Molecule: CC(C)CCC[C@@H](C)[C@H]1CC[C@H]2[C@@H]3C[C@@H](SC[C@H](NC(=O)CC[C@H](N)C(=O)O)C(=O)NCC(=O)O)[C@@]4(O)C[C@@H](O)CC[C@]4(C)[C@H]3CC[C@]12C [CDO-SG, 3β,5α-dihydroxycholestan-6β-yl-S-glutathione]
weaker capacity to produce CDO-SG than to produce CDNB-SG (hGSTA1 [2]; ratio of maximum velocities): 24.10^6 fold

Molecule: CC(C)CCC[C@@H](C)[C@H]1CC[C@H]2[C@@H]3C[C@@H](O)[C@@]4(O)C[C@@H](O)CC[C@]4(C)[C@H]3CC[C@]12C [CT]
Inhibition of CDO-SG biosynthesis (hGSTA1 [2]): potent inhibitors

Molecule: CC(C)CCCC(C)[C@H]1CCC2C3C[C@@H](NCCc4cnc[nH]4)[C@@]4(O)C[C@@H](O)CC[C@]4(C)C3CC[C@@]21C (some centres unmarked) [DDA, 5-hydroxy-6-[2-(1H-imidazol-4-yl)ethylamino]cholestan-3-ol]
affinity for LXR (LXR): sub-μM

Vm^GSH (hGSTA1 [1]; CDNB + GSH to CDNB-SG): 8.12 μmol·min^−1·mg prot
Vm^GSH (hGSTA1 [2]; [6]): 1.50 pmol · min^−1 · mg · pr
IC50 (hGSTA1 [3]; read-out: IC50, inhibition of the biosynthesis of DDA): 52 µM
Molecule: N[C@@H](CCC(=O)N[C@@H](CS)C(=O)NCC(=O)O)C(=O)O [GSH, glutathione]

Inhibition of CDNB-SG biosynthesis (hGSTA1 [1]): not inhibitors
Inhibition of CDO-SG biosynthesis (hGSTA1 [2]): potent inhibitor
catalytic efficiency higher to transform HA compared to GSH (hGSTA1 [3]): 60 fold
weaker Km for HA than for GSH (hGSTA1 [3]; DDA biosynthesis versus CDO-SG biosynthesis): 135 fold
Vm^His (hGSTA1 [3]; [7]): 0.66 pmol · min^−1 · mg · pr
Molecule: NCCc1c[nH]cn1 [HA, histamine]

Molecule: CC(C)CCC[C@@H](C)[C@H]1CC[C@H]2[C@@H]3CC(=O)[C@@]4(O)C[C@@H](O)CC[C@]4(C)[C@H]3CC[C@]12C [OCDO]
Inhibition of CDO-SG biosynthesis (hGSTA1 [2]): potent inhibitors

B1: hGSTA1 (Homo sapiens) (protein)
chain: MAEKPKLHYFNARGRMESTRWLLAAAGVEFEEKFIKSAEDLDKLRNDGYLMFQQVPMVEIDGMKLVQTRAILNYIASKYNLYGKDIKERALIDMYIEGIADLGEMILLLPVCPPEEKDAKLALIKEKIKNRYFPAFEKVLKSHGQDYLVGNKLSRADIHLVELLYYVEELDSSLISSFPLLKALKTRISNLPTVKKFLQPGSPRKPPMDEKSLEEARKIFRF
Km [4]: 0.35 µM
Vmax [4]: 0.66 pmol·min^−1·mg prot
Km [5]: 47 µM
Vmax [5]: 1.50 pmol·min^−1·mg prot
